Data: patent publication US12408604B2, “Method for producing avenanthramide-rich oats using active elicitors” (KOREA RESEARCH INSTITUTE OF BIOSCIENCE AND BIOTECHNOLOGY, priority 2020, dated 2025)

What was measured:
Assay type in all cases: in vivo
[1] = test system: Choyang oats; experiment: Production (content) of avenanthramides in germinated oats treated with elicitors, HPLC analysis; conditions: for production of avenanthramides compared to control group: Example 3, FIG. 2, SA vs control DW, ABA vs control EtOH; for production of avenanthramides over tested concentrations: Example 5, MJ 10-100 μM, ABA 10-300 μM; for synthesis amount / content of avenanthramides in oats compared to other elicitors: Examples 3 and 4, FIG. 2
Procedure: In an embodiment of the present invention, a domestic cultivated breed, Choyang oats, was used. The Choyang oat seeds were immersed for 12 hours, and then sterilized at 50° C. for 10 minutes and used. Two sheets of sterile filter paper were laid on a plant culture dish, poured with 7 ml of water, and then the sterilized Choyang oat seeds were placed and cold-treated at 4° C. for two days. The Choyang oat seeds were cultured under culture conditions of 25° C. and a photoperiod of 16L:8D.
Analysis of avenanthramides of germinated oats recovered in Example of the present invention was performed as follows. First, the obtained germinated oats were powdered using liquid nitrogen. 0.1 g of the oat powder was extracted with 1 ml of 80% methanol, and then sonicated at 50° C. for 20 minutes, extracted, and then centrifuged to obtain an oat extract from an upper layer. The extracted filtrate was dried by injecting air, and the dried product was dissolved in 200 μl of 80% methanol, and filtered using 0.2 μm PTFE (hydrophilic, ADVANTEC, Japan), and the sample was used for high-performance liquid chromatography (HPLC) analysis. A pump system used 4 solvent pumps (quaternary pumps), and a column used ZORBAX SB-18 ([…], 4.6×150 mm) from Agilent, and a mobile phase was analyzed by using gradient elution using water (A, 5% acetonitrile, 0.1% formic acid) and acetonitrile. (B, 0.1% formic acid).
After treatment with the elicitors for 3 days, the avenanthramides were harvested and HPLC was performed. The elicitors used at this time were methyl jasmonate (MJ), abscisic acid (ABA), salicylic acid (SA), ethephon (ET), methyl viologen (MV), and chitosan (CHI). DW was used as a solvent for MV, CHI, and SA, and EtOH was used as a solvent for ET, MJ, and ABA. A case of treating only DW and EtOH (0.1%), which are solvents of each elicitor, was set as a control.
Like in Example 3, 10 μM, 20 μM, 25 μM, 50 μM, 75 μM, and 100 μM of MJ and 10 μM, 20 μM, 25 μM, 50 μM, 75 μM, 100 μM, and 300 μM of ABA were treated by concentration on day 2 after germination, recovered on day 5 after germination, then frozen using liquid nitrogen, and stored at −80° C. until extraction and used. As a control, EtOH, a solvent of MJ and ABA, was treated at a concentration of 0.1%. The experimental results were shown in Tables 2 and 3 and FIGS. 4 and 5 below. […]

[2] = test system: AsPAL; experiment: qRT-PCR transcriptional expression of avenanthramide biosynthetic gene AsPAL in elicitor-treated oats; conditions: single elicitor treatment, Example 4, FIG. 3
Procedure: (§1) Specifically, total RNA was isolated from the recovered oats, and cDNA was synthesized from the isolated total RNA using a First-Strand CDNA Synthesis Kit (Fermantas, Canada). By using the synthesized cDNA, qRT-PCR was performed on avenanthramide biosynthesis-related genes.
(§2) For the qRT-PCR amplification, a Quick Guide from BIOFACT was used, and a process of initial denaturation at 95° C. for 15 minutes and denaturation at 95° C. for 20 seconds, binding and elongation at […] for 40 seconds was repeated 40 times, and melting curve analysis was performed at 65° C. to 95° C. by 1° C. for 0.5 second.
(§3) Primers for avenanthramides biosynthesis genes and actin qRT-PCR used for the experiment were as follows.

[3] = test system: AsHHT4; experiment: qRT-PCR transcriptional expression of avenanthramide biosynthetic gene AsHHT4 in elicitor-treated oats; conditions: single elicitor treatment, Example 4, FIG. 3
Procedure: as §1, §2, §3

[4] = Example 3, elicitor treated on day 2 after germination induction for 3 days, concentration not given
[5] = Example 3, total avenanthramides, control DW for MV, CHI, SA, control EtOH for ET, MJ, ABA
[6] = 10 μM elicitor, control EtOH 0.1%
[7] = 10 μM elicitor, treated day 2, recovered day 5 after germination
[8] = 20 μM elicitor, control EtOH 0.1%
[9] = 20 μM elicitor, treated day 2, recovered day 5 after germination
[10] = 25 μM elicitor, control EtOH 0.1%
[11] = 25 μM elicitor, treated day 2, recovered day 5 after germination
[12] = 50 μM elicitor, control EtOH 0.1%
[13] = 50 μM elicitor, treated day 2, recovered day 5 after germination
[14] = 75 μM elicitor, control EtOH 0.1%
[15] = 75 μM elicitor, treated day 2, recovered day 5 after germination
[16] = 100 μM elicitor, control EtOH 0.1%
[17] = 100 μM elicitor, treated day 2, recovered day 5 after germination
[18] = 300 μM elicitor, treated day 2, recovered day 5 after germination

Q: What does the source list for `C[n+]1ccc(-c2cc[n+](C)cc2)cc1` [MV, methyl viologen]?
A: avnA [1, 4]: 95.37 mg/kg, FW; avnB [1, 4]: 169.01 mg/kg, FW; avnC [1, 4]: 84.14 mg/kg, FW; total [1, 4]: 348.52 mg/kg, FW; Compared to control [1, 5]: 3.74%

Q: Which results are given for `CC/C=C\C[C@H]1C(=O)CC[C@@H]1CC(=O)OC` [MJ, methyl jasmonate]?
A: expression of AsPAL gene [2]: increased; Compared to control [1, 6]: 37.41%; avnA [1, 7]: 93.22 mg/kg, FW; avnB [1, 7]: 163.98 mg/kg, FW; avnC [1, 7]: 77.35 mg/kg, FW; total [1, 7]: 334.55 mg/kg, FW; Compared to control [1, 8]: 45.03%; avnA [1, 9]: 98.32 mg/kg, FW; avnB [1, 9]: 168.66 mg/kg, FW; avnC [1, 9]: 86.12 mg/kg, FW; total [1, 9]: 353.1 mg/kg, FW; Compared to control [1, 10]: 57.97%; avnA [1, 11]: 105.54 mg/kg, FW; avnB [1, 11]: 200.86 mg/kg, FW; avnC [1, 11]: 78.2 mg/kg, FW; total [1, 11]: 384.6 mg/kg, FW; Compared to control [1, 12]: 99.80%; avnA [1, 13]: 147.03 mg/kg, FW; avnB [1, 13]: 222.81 mg/kg, FW; avnC [1, 13]: 116.59 mg/kg, FW; total [1, 13]: 486.43 mg/kg, FW; Compared to control [1, 14]: 137.67%; avnA [1, 15]: 179.81 mg/kg, FW; avnB [1, 15]: 268.73 mg/kg, FW; avnC [1, 15]: 130.08 mg/kg, FW; total [1, 15]: 578.62 mg/kg, FW; Compared to control [1, 16]: 88.13%; avnA [1, 17]: 138.82 mg/kg, FW; avnB [1, 17]: 218.47 mg/kg, FW; avnC [1, 17]: 100.73 mg/kg, FW; total [1, 17]: 458.02 mg/kg, FW; production of avenanthramides compared to control group ([1]; CHI, MJ): significantly increased; avnA [1, 4]: 190.07 mg/kg, FW; avnB [1, 4]: 260.43 mg/kg, FW; avnC [1, 4]: 132.39 mg/kg, FW; total [1, 4]: 582.89 mg/kg, FW; Compared to control [1, 5]: 150.63%; production of avenanthramides over tested concentrations [1]: increased at all concentrations; synthesis amount / content of avenanthramides in oats compared to other elicitors [1]: most increased; synthesis amount / content of avenanthramides in oats compared to other elicitors ([1]; listed as methyl jasmonate): increased most; largest amount of avenanthramides produced ([1]; MJ at a concentration of 75 μM (FIG. 4)): up to 578.6 mg/kg; production of avenanthramides in oats ([1]; MJ at concentrations of 10 μM to 100 μM): significantly increased; expression of AsHHT4 gene [3]: increased

Q: How did the “expression of AsPAL gene” value [2] turn out when `CC1=CC(=O)CC(C)(C)[C@@]1(O)/C=C/C(C)=C\C(=O)O` [ABA, abscisic acid] was run?
A: increased

Q: What about the Compared to control [1, 6] of the same compound?
A: 176.85%

Q: What about the avnA [1, 7] of the same compound?
A: 177.8 mg/kg, FW

Q: And the avnB [1, 7]?
A: 299.1 mg/kg, FW

Q: What about the avnC [1, 7] of the same compound?
A: 197.11 mg/kg, FW

Q: What about the total [1, 7] of the same compound?
A: 674.01 mg/kg, FW

Q: And the Compared to control [1, 8]?
A: 185.33%

Q: And the avnA [1, 9]?
A: 185.34 mg/kg, FW

Q: And the avnB [1, 9]?
A: 319.67 mg/kg, FW

Q: And the avnC [1, 9]?
A: 189.65 mg/kg, FW

Q: What about the total [1, 9] of the same compound?
A: 694.66 mg/kg, FW

Q: What about the Compared to control [1, 10] of the same compound?
A: 225.40%

Q: What about the avnA [1, 11] of the same compound?
A: 202.56 mg/kg, FW

Q: What about the avnB [1, 11] of the same compound?
A: 363.51 mg/kg, FW

Q: What about the avnC [1, 11] of the same compound?
A: 226.14 mg/kg, FW

Q: And the total [1, 11]?
A: 792.21 mg/kg, FW

Q: And the Compared to control [1, 12]?
A: 240.45%

Q: And the avnA [1, 13]?
A: 206.95 mg/kg, FW

Q: And the avnB [1, 13]?
A: 385.73 mg/kg, FW

Q: What about the avnC [1, 13] of the same compound?
A: 236.19 mg/kg, FW

Q: What about the total [1, 13] of the same compound?
A: 828.87 mg/kg, FW

Q: And the Compared to control [1, 14]?
A: 217.58%

Q: And the avnA [1, 15]?
A: 211.62 mg/kg, FW

Q: What about the avnB [1, 15] of the same compound?
A: 328.63 mg/kg, FW

Q: What about the avnC [1, 15] of the same compound?
A: 232.94 mg/kg, FW

Q: What about the total [1, 15] of the same compound?
A: 773.19 mg/kg, FW

Q: And the Compared to control [1, 16]?
A: 184.80%

Q: What about the avnA [1, 17] of the same compound?
A: 186.05 mg/kg, FW

Q: And the avnB [1, 17]?
A: 309.78 mg/kg, FW

Q: And the avnC [1, 17]?
A: 197.55 mg/kg, FW

Q: What about the total [1, 17] of the same compound?
A: 693.38 mg/kg, FW

Q: What about the Compared to control ([1]; 300 μM elicitor, control EtOH 0.1%) of the same compound?
A: 189.98%

Q: And the avnA [1, 18]?
A: 193.65 mg/kg, FW

Q: What about the avnB [1, 18] of the same compound?
A: 328.02 mg/kg, FW

Q: And the avnC [1, 18]?
A: 184.32 mg/kg, FW

Q: What about the total [1, 18] of the same compound?
A: 705.99 mg/kg, FW

Q: What about the “largest amount of avenanthramides produced” value ([1]; ABA at a 50 μM concentration (FIG. 5)) of the same compound?
A: up to 828.8 mg/kg

Q: And the “production of avenanthramides in oats” value ([1]; ABA at concentrations of 20 to 300 μM)?
A: significantly increased

Q: And the “production of avenanthramide C” value ([1]; Example 3)?
A: specifically increased the most

Q: What about the “production of avenanthramides compared to control group” value ([1]; CHI, MJ) of the same compound?
A: significantly increased

Q: What about the avnA [1, 4] of the same compound?
A: 193.78 mg/kg, FW

Q: What about the avnB [1, 4] of the same compound?
A: 207.37 mg/kg, FW

Q: And the avnC [1, 4]?
A: 241.72 mg/kg, FW

Q: And the total [1, 4]?
A: 642.87 mg/kg, FW

Q: What about the Compared to control [1, 5] of the same compound?
A: 176.42%

Q: What about the “production of avenanthramides over tested concentrations” value [1] of the same compound?
A: increased at all concentrations

Q: What about the “synthesis amount / content of avenanthramides in oats compared to other elicitors” value [1] of the same compound?
A: most increased

Q: What about the “synthesis amount / content of avenanthramides in oats compared to other elicitors” value ([1]; listed as abscisic acid) of the same compound?
A: increased most

Q: What about the “expression of AsHHT4 gene” value [3] of the same compound?
A: increased
